Key:
PI3K alpha = biological target: T1, PI3K alpha (Homo sapiens, UniProt P42336); experiment: Enzymatic PI3K alpha isoform inhibition (lipid kinase activity, Kinase-Glo); type: biochemical; details: enzymatic assay
T1 construct: for the p110-a subunit (with a deletion of the first 20 amino acids) are generated; His tag (C); made in house; host or cells: baculovirus BV1075; Tn5 (Trichoplusia ni) or TiniPro insect cells
Procedure: (§1) The components of the assay are added per well as follows:
(§2) IC50 is determined by a four parameter curve fitting routine that comes along with “excel fit”.
(§3) Yet alternatively, for an ATP depletion assay, compounds of the formula I to be tested are dissolved in DMSO and directly distributed into a white 384-well plate at 0.5 μl per well. To start the reaction, 10 μl of 10 nM PI3 kinase and 5 μg/ml 1-alpha-phosphatidylinositol (PI) are added into each well followed by 10 μl of 2 μM ATP. The reaction is performed until approx 50% of the ATP is depleted, and then stopped by the addition of 20 μl of Kinase-Glo solution (Promega Corp., Madison, Wis., USA). The stopped reaction is incubated for 5 minutes and the remaining ATP is then detected via luminescence. IC50 values are then determined.

PI3K delta = biological target: T2, PI3K delta (Homo sapiens, UniProt O00329); experiment: Enzymatic PI3K delta isoform inhibition (lipid kinase activity, Kinase-Glo); type: biochemical; details: enzymatic assay
T2 construct: for the full-length p110-d subunit are generated and fused by overlapping PCR; His tag (C); made in house; host or cells: baculovirus BV1060; Tn5 (Trichoplusia ni) or TiniPro insect cells
T2 sequence (O00329 with tags, fused parts or gaps limits assumed, species assumed): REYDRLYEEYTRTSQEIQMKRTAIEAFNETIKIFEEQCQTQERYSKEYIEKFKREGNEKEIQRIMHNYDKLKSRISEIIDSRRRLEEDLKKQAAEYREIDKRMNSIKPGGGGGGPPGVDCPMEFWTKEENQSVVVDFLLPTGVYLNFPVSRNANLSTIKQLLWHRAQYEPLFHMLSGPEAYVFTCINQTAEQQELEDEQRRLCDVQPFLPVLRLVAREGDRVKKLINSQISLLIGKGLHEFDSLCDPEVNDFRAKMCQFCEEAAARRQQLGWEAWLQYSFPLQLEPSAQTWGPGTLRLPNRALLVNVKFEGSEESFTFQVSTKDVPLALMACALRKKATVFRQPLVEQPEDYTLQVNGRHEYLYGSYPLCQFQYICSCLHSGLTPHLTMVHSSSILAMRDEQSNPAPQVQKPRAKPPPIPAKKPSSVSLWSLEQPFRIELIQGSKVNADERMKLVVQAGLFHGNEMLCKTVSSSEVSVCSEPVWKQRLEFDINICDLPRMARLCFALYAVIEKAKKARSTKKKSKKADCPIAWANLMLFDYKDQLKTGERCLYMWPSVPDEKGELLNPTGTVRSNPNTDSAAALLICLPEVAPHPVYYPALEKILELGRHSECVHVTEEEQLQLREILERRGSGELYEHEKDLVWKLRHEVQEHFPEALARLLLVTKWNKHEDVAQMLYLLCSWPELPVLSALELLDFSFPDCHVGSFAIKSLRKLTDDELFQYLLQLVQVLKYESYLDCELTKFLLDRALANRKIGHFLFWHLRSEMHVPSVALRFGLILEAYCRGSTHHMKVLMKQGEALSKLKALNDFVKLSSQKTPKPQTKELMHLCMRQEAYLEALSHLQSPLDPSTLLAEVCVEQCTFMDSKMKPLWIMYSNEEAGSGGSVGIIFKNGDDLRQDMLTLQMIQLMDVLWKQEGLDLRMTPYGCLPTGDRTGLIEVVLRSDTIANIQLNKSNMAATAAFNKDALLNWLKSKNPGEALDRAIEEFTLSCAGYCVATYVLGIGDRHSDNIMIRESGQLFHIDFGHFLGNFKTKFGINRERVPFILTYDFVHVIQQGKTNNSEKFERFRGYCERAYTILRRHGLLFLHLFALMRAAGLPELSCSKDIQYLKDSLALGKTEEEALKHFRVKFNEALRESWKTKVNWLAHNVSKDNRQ
Procedure: as §1, §2, §3

T1 sequence (P42336 with tags, fused parts or gaps limits assumed, species assumed): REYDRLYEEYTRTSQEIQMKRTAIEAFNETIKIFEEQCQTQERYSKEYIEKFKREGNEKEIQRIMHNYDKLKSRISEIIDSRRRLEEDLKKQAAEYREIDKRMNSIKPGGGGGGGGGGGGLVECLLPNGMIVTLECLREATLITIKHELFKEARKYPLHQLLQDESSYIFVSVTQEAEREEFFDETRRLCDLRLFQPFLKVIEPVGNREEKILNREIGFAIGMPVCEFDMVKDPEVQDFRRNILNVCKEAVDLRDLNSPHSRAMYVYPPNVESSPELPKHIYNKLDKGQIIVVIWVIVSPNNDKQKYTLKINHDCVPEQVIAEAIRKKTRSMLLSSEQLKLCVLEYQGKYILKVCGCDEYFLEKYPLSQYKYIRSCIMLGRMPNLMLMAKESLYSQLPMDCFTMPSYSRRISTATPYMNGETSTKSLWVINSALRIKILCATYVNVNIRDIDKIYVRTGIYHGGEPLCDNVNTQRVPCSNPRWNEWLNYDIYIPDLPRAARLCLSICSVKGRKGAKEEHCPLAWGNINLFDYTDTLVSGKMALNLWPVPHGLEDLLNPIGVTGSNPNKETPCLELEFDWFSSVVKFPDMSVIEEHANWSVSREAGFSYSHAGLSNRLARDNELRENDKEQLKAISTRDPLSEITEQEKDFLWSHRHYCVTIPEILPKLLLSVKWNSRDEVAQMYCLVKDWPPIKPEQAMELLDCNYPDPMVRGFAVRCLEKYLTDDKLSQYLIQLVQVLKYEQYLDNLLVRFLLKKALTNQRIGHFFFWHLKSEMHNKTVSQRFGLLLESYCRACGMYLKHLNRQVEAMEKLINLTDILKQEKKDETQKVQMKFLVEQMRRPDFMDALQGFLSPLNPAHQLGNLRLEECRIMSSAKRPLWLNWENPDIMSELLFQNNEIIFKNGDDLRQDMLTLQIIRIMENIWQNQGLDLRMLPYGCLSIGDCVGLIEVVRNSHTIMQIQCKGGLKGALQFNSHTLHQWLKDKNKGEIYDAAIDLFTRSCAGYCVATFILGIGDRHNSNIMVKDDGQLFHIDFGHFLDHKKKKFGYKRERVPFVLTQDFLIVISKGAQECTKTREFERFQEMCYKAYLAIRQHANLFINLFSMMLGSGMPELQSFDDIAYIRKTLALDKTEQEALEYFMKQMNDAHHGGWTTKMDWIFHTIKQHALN

IC50 (PI3K alpha)	IC50 (PI3K delta)	Structure (SMILES)
793 nM	7 nM	COc1ccc(-c2ccc3ncnc(-c4cncc(C(=O)N5C[C@@H]6C[C@H]5CN6)c4)c3c2)cc1C(F)(F)F [Example 85, (1S,4S)-2,5-Diaza-bicyclo[2.2.1]hept-2-yl-{5-[6-(4-methoxy-3-trifluoromethyl-phenyl)-quinazolin-4-yl]-pyridin-3-yl}-methanone]
380 nM	15.5 nM	CCN1CCN(C(=O)c2cccc(-c3ncnc4ccc(-c5ccc(OC)nc5)cc34)c2)CC1 [Example 86, (4-Ethyl-piperazin-1-yl)-{3-[6-(6-methoxy-pyridin-3-yl)-quinazolin-4-yl]-phenyl}-methanone]
126 nM	< 3 nM	COc1ccc(-c2ccc3ncnc(-c4cccc(C(=O)N5CCN(CC(F)(F)F)CC5)c4)c3c2)cn1 [Example 87, {3-[6-(6-Methoxy-pyridin-3-yl)-quinazolin-4-yl]-phenyl}-[4-(2,2,2-trifluoro-ethyl)-piperazin-1-yl]-methanone]
100 nM	2.67 nM	COc1ccc(-c2ccc3ncnc(-c4cccc(C(=O)N5CCNC(C)(C)C5)c4)c3c2)cn1 [Example 88, (3,3-Dimethyl-piperazin-1-yl)-{3-[6-(6-methoxy-pyridin-3-yl)-quinazolin-4-yl]-phenyl}-methanone]
99 nM	4 nM	COc1ccc(-c2ccc3ncnc(-c4cccc(C(=O)N5CCN(C)C(C)(C)C5)c4)c3c2)cn1 [Example 89, {3-[6-(6-Methoxy-pyridin-3-yl)-quinazolin-4-yl]-phenyl}-(3,3,4-trimethyl-piperazin-1-yl)-methanone]
181 nM	5.75 nM	COc1ccc(-c2ccc3ncnc(-c4cccc(C(=O)N5CC(C)NC(C)C5)c4)c3c2)cn1 (stereo not shown) [Example 90, (3,5-Dimethyl-piperazin-1-yl)-{3-[6-(6-methoxy-pyridin-3-yl)-quinazolin-4-yl]-phenyl}-methanone]
196 nM	3.75 nM	COc1ccc(-c2ccc3ncnc(-c4cccc(C(=O)N5CCCN(C)CC5)c4)c3c2)cn1 [Example 92, {3-[6-(6-Methoxy-pyridin-3-yl)-quinazolin-4-yl]-phenyl}-(4-methyl-[1,4]diazepan-1-yl)-methanone]
120 nM	< 3 nM	COc1ccc(-c2ccc3ncnc(-c4cccc(C(=O)N5CCS(=O)(=O)CC5)c4)c3c2)cn1 [Example 93, (1,1-Dioxo-1lambda*6*-thiomorpholin-4-yl)-{3-[6-(6-methoxy-pyridin-3-yl)-quinazolin-4-yl]-phenyl}-methanone]
174 nM	6 nM	COc1ccc(-c2ccc3ncnc(-c4cccc(C(=O)N5CCC(O)CC5)c4)c3c2)cn1 [Example 94, (4-Hydroxy-piperidin-1-yl)-{3-[6-(6-methoxy-pyridin-3-yl)-quinazolin-4-yl]-phenyl}-methanone]
281 nM	9 nM	COc1ccc(-c2ccc3ncnc(-c4cccc(C(=O)N5CCOC(C)(C)C5)c4)c3c2)cn1 [Example 95, (2,2-Dimethyl-morpholin-4-yl)-{3-[6-(6-methoxy-pyridin-3-yl)-quinazolin-4-yl]-phenyl}-methanone]
316 nM	6 nM	CCC(=O)N1CCN(C(=O)c2cccc(-c3ncnc4ccc(-c5cnc(OC)c(C#N)c5)cc34)c2)CC1 [Example 96, 2-Methoxy-5-{4-[3-(4-propionyl-piperazine-1-carbonyl)-phenyl]-quinazolin-6-yl}-nicotinonitrile]
463 nM	23 nM	COc1ccc(-c2ccc3ncnc(-c4cccc(C(=O)N5CCNC[C@H]5C)c4)c3c2)cn1 [Example 97, {3-[6-(6-Methoxy-pyridin-3-yl)-quinazolin-4-yl]-phenyl}-((R)-2-methyl-piperazin-1-yl)-methanone]
102 nM	3.5 nM	COc1ccc(-c2ccc3ncnc(-c4cccc(C(=O)N5CCNC[C@@H]5C)c4)c3c2)cn1 [Example 98, {3-[6-(6-Methoxy-pyridin-3-yl)-quinazolin-4-yl]-phenyl}-((S)-2-methyl-piperazin-1-yl)-methanone]
237 nM	4.5 nM	COc1ccc(-c2ccc3ncnc(-c4cccc(C(=O)N5CCN(C)C[C@@H]5C)c4)c3c2)cn1 [Example 99, ((S)-2,4-Dimethyl-piperazin-1-yl)-{3-[6-(6-methoxy-pyridin-3-yl)-quinazolin-4-yl]-phenyl}-methanone]
188 nM	5 nM	COc1ccc(-c2ccc3ncnc(-c4ccc(C)c(C(=O)N5CCN(C(C)=O)CC5)c4)c3c2)cn1 [Example 100, 1-(4-{5-[6-(6-Methoxy-pyridin-3-yl)-quinazolin-4-yl]-2-methyl-benzoyl}-piperazin-1-yl)-ethanone]

More lines, now with the values behind:

Structure (SMILES)	IC50 (PI3K alpha)	IC50 (PI3K delta)
COc1ncc(-c2ccc3ncnc(-c4cncc(C(=O)N5CCOC(C)(C)C5)c4)c3c2)cc1C#N [Example 62]	1150 nM	7 nM
COc1ncc(-c2ccc3ncnc(-c4cncc(C(=O)N5CCOC(C)(C)C5)c4)c3c2)cc1F [Example 63]	505 nM	6 nM
CC1(C)CN(C(=O)c2cncc(-c3ncnc4ccc(-c5cncc(S(C)(=O)=O)c5)cc34)c2)CCO1 [Example 64]	583 nM	11 nM
COc1ccc(-c2ccc3ncnc(-c4cncc(C(=O)N5CCOC(C)(C)C5)c4)c3c2)cc1C(F)(F)F [Example 66]	763 nM	9.5 nM
COc1ccc(-c2ccc3ncnc(-c4cncc(C(=O)N5CCOC(C)(C)C5)c4)c3c2)cn1 [Example 67]	306 nM	7 nM
COc1ncc(-c2ccc3ncnc(-c4cncc(C(=O)N5CCOCC5)c4)c3c2)cc1C(F)(F)F [Example 68]	97 nM	3 nM
COc1ncc(-c2ccc3ncnc(-c4cncc(C(=O)N5CCOCC5)c4)c3c2)cc1C#N [Example 69]	880 nM	8 nM
COc1ncc(-c2ccc3ncnc(-c4cncc(C(=O)N5CCOCC5)c4)c3c2)cn1 [Example 70]	1030 nM	30 nM
COc1ncc(-c2ccc3ncnc(-c4cncc(C(=O)N5CCS(=O)(=O)CC5)c4)c3c2)cc1C#N [Example 71]	550 nM	8 nM
COc1ncc(-c2ccc3ncnc(-c4cncc(C(=O)N5CCN(C)C(C)(C)C5)c4)c3c2)cc1C [Example 72]	69.5 nM	3 nM
COc1ncc(-c2ccc3ncnc(-c4cncc(C(=O)N5CCN(C)C(C)(C)C5)c4)c3c2)cc1F [Example 73]	60.5 nM	< 3 nM
COc1ncc(-c2ccc3ncnc(-c4cncc(C(=O)N5CCN(C)C(C)(C)C5)c4)c3c2)cc1C(F)(F)F [Example 74]	150 nM	5 nM
COc1ccc(-c2ccc3ncnc(-c4cncc(C(=O)N5CCCN(C)CC5)c4)c3c2)cn1 [Example 76, {5-[6-(6-Methoxy-pyridin-3-yl)-quinazolin-4-yl]-pyridine-3-yl}-(4-methyl-[1,4]-diazepan-1-yl)-methanone]	578 nM	23.5 nM
COc1ccc(-c2ccc3ncnc(-c4cncc(C(=O)N5C[C@@H]6C[C@H]5CN6C)c4)c3c2)cn1 [Example 77, {5-[6-(6-Methoxy-pyridin-3-yl)-quinazolin-4-yl]-pyridin-3-yl}-((1S,4S)-5-methyl-2,5-diaza-bicyclo[2.2.1]hept-2-yl)-methanone]	573 nM	14 nM
COc1ccc(-c2ccc3ncnc(-c4cncc(C(=O)N5CCN(C)C(C)(C)C5)c4)c3c2)cn1 [Example 78, {5-[6-(6-Methoxy-pyridin-3-yl)-quinazolin-4-yl]-pyridin-3-yl}-(3,3,4-trimethyl-piperazin-1-yl)-methanone]	123 nM	4.5 nM
COc1ccc(-c2ccc3ncnc(-c4cncc(C(=O)N5CCNC(C)(C)C5)c4)c3c2)cn1 [Example 79, (3,3-Dimethyl-piperazin-1-yl)-{5-[6-(6-methoxy-pyridin-3-yl)-quinazolin-4-yl]-pyridin-3-yl}-methanone]	360 nM	10 nM
COc1ccc(-c2ccc3ncnc(-c4cncc(C(=O)N5CC(C)NC(C)C5)c4)c3c2)cc1C(F)(F)F (stereo not shown) [Example 80, (3,5-Dimethyl-piperazin-1-yl)-{5-[6-(4-methoxy-3-trifluoromethyl-phenyl)-quinazolin-4-yl]-pyridin-3-yl}-methanone]	717 nM	10.5 nM
COc1ccc(-c2ccc3ncnc(-c4cncc(C(=O)N5CCOCC5)c4)c3c2)cc1C(F)(F)F [Example 82, {5-[6-(4-Methoxy-3-trifluoromethyl-phenyl)-quinazolin-4-yl]-pyridin-3-yl}-morpholin-4-yl-methanone]	1330 nM	21.5 nM
COc1ccc(-c2ccc3ncnc(-c4cncc(C(=O)N5CCNCC(F)(F)C5)c4)c3c2)cc1C(F)(F)F [Example 83, (6,6-Difluoro-[1,4]diazepan-1-yl)-{5-[6-(4-methoxy-3-trifluoromethyl-phenyl)-quinazolin-4-yl]-pyridin-3-yl}-methanone]	904 nM	21 nM
COc1ccc(-c2ccc3ncnc(-c4cncc(C(=O)N5CCNC[C@@H]5C)c4)c3c2)cc1C(F)(F)F [Example 84, {5-[6-(4-Methoxy-3-trifluoromethyl-phenyl)-quinazolin-4-yl]-pyridin-3-yl}-((S)-2-methyl-piperazin-1-yl)-methanone]	558 nM	9.5 nM

Source: US20140249139A1, “Quinazoline Derivatives” (NOVARTIS AG, priority 2011, published 2014)
